Measurements reported in US20050026189A1, “Microbial operons” (priority 2003, published 2005).
Converted amounts (≈) assume the structure as drawn. Read-outs that look alike come from different tables or passages of the source. Positions of bridges follow the written chain, without caps; N, C: chain ends. Non-standard residues stand in square brackets, D forms with d. Residues, ends and D or L forms follow the SMILES beside them. *: point of attachment. Ileψ(thiazoline)Cys = CC[C@H](C)[C@H](N)C1=N[C@H](C(=O)*)CS1; dOrn = NCCC[C@@H](N)C(=O)O

What was measured:
[1] = test system: E. coli transcribing antisense RNA to rplL and rplJ (AS-rplL/J); test: microbe, parasite or virus in culture; assay type: cell-based; conditions: for IC50: Escherichia coli; for Fold Increase in Sensitivity: IC50 without IPTG versus IC50 with 400 μM IPTG; for Sensitivity Increased?: statistically significant decrease in the IC50 value in the presence of inducer (IPTG)
Method: The effectiveness of the above assays was validated using proliferation-required genes from E. coli which were identified using procedures similar to those described above. Antibiotics of various chemical classes and modes of action were purchased from Sigma Chemicals (St. Louis, Mo.). Stock solutions were prepared by dissolving each antibiotic in an appropriate aqueous solution based on information provided by the manufacturer. The final working solution of each antibiotic contained no more than 0.2% (w/v) of any organic solvent. To determine their potency against a bacterial strain engineered for transcription of an antisense comprising a nucleotide sequence complementary to a proliferation-required 50S ribosomal protein, each antibiotic was serially diluted two- or three-fold in growth medium supplemented with the appropriate antibiotic for maintenance of the antisense construct. At least ten dilutions were prepared for each antibiotic. 25 μL aliquots of each dilution were transferred to discrete wells of a 384-well microplate (the assay plate) using a multi-channel pipette. Quadruplicate wells were used for each dilution of an antibiotic under each treatment condition (plus and minus inducer). Each assay plate contained twenty wells for cell growth controls (growth medium replacing antibiotic), ten wells for each treatment (plus and minus inducer, in this example IPTG). Assay plates were usually divided into the two treatments: half the plate containing induced cells and an appropriate concentrations of inducer (in this example IPTG) to maintain the state of induction, the other half containing non-induced cells in the absence of IPTG.
Cells for the assay were prepared as follows. Bacterial cells containing a construct, from which transcription of antisense nucleic acid comprising a nucleotide sequence complementary to rplL and rplJ (AS-rplL/J), which encode proliferation-required 50S ribosomal subunit proteins, is inducible in the presence of IPTG, were grown into exponential growth (OD600 0.2 to 0.3) and then diluted 1:100 into fresh medium containing either 400 μM or 0 μM inducer (IPTG). These cultures were incubated at 37° C. for 2.5 hr. After a 2.5 hr incubation, induced and non-induced cells were respectively diluted into an assay medium at a final OD600 value of 0.0004. The medium contained an appropriate concentration of the antibiotic for the maintenance of the antisense construct. In addition, the medium used to dilute induced cells was supplemented with 800 μM IPTG so that addition to the assay plate would result in a final IPTG concentration of 400 μM. Induced and non-induced cell suspensions were dispensed (25 μl/well) into the appropriate wells of the assay plate as discussed previously. The plate was then loaded into a plate reader, incubated at constant temperature, and cell growth was monitored in each well by the measurement of light scattering at 595 nm. Growth was monitored every 5 minutes until the cell culture attained a stationary growth phase. For each concentration of antibiotic, a percentage inhibition of growth was calculated at the time point corresponding to mid-exponential growth for the associated control wells (no antibiotic, plus or minus IPTG). For each antibiotic and condition (plus or minus IPTG), a plot of percent inhibition versus log of antibiotic concentration was generated and the IC50 determined.

[2] = test system: Staphylococcus aureus cells transcribing antisense to gyrB; test: Antibiotic potency in Staphylococcus aureus cells with and without xylose-induced antisense to the Beta subunit of DNA gyrase (FIG. 10); assay type: cell-based; conditions: 12 mM xylose versus 0 mM xylose; antisense to β subunit of gyrase
Method: Antibiotics of various chemical classes and modes of action were purchased from chemical suppliers, for example Sigma Chemicals (St. Louis, Mo). Stock solutions were prepared by dissolving each antibiotic in an appropriate aqueous solution based on information provided by the manufacturer. The final working solution of each antibiotic contained no more than 0.2% (w/v) of any organic solvent.
To determine its potency against a bacterial strain containing an antisense nucleic acid comprising a nucleotide sequence complementary to the nucleotide sequence encoding the Beta subunit of DNA gyrase (which is required for proliferation) under the control of a xylose inducible promoter, each antibiotic was serially diluted two- or three-fold in growth medium supplemented with the appropriate antibiotic for maintenance of the antisense construct. At least ten dilutions were prepared for each antibiotic.
Aliquots (25 μL) of each dilution were transferred to discrete wells of a 384-well microplate (the assay plate) using a multi-channel pipette. Quadruplicate wells were used for each dilution of an antibiotic under each treatment condition (plus and minus inducer). Each assay plate contained twenty wells for cell growth controls (growth medium, no antibiotic), ten wells for each treatment (plus and minus inducer, xylose, in this example). Half the assay plate contained induced cells (in this example Staphylococcus aureus cells) and appropriate concentrations of inducer (xylose, in this example) to maintain the state of induction while the other half of the assay plate contained non-induced cells maintained in the absence of inducer.
Cells of a bacterial clone containing a construct in which transcription of antisense comprising a nucleotide sequence complementary to the sequence encoding the Beta subunit of DNA gyrase under the control of the xylose inducible promoter (S1M10000001F08) were grown into exponential growth (OD600 0.2 to 0.3) and then diluted 1:100 into fresh medium containing either 12 mM or 0 mM inducer (xylose). These cultures were incubated at 37° C. for 2.5 hr. The presence of inducer (xylose) in the medium initiates and maintains production of antisense RNA from the antisense construct. After a 2.5 hr incubation, induced and non-induced cells were respectively diluted into an assay medium containing an appropriate concentration of the antibiotic for the maintenance of the antisense construct. In addition, medium used to dilute induced cells was supplemented with 24 mM xylose so that addition to the assay plate would result in a final xylose concentration of 12 mM. The cells were diluted to a final OD600 value of 0.0004.
Induced and non-induced cell suspensions were dispensed (25 μl/well) into the appropriate wells of the assay plate as discussed previously. The plate was then loaded into a plate reader and incubated at constant temperature while cell growth was monitored in each well by the measurement of light scattering at 595 nm. Growth was monitored every 5 minutes until the cell culture attained a stationary growth phase. For each concentration of antibiotic, a percentage inhibition of growth was calculated at the time point corresponding to mid-exponential growth for the associated control wells (no antibiotic, plus or minus xylose). For each antibiotic and condition (plus or minus xylose), plots of percent inhibition versus Log of antibiotic concentration were generated and IC50s, determined.

Row | Compound | Fold Increase in Sensitivity [1] | Sensitivity Increased? [1] | potency in induced cells as compared to uninduced cells [2] | other results
1 | CN[C@H](CC(C)C)C(=O)N[C@H]1C(=O)N[C@@H](CC(N)=O)C(=O)N[C@H]2C(=O)N[C@H]3C(=O)N[C@H](C(=O)N[C@H](C(=O)O)c4cc(O)cc(O)c4-c4cc3ccc4O)[C@H](O)c3ccc(c(Cl)c3)Oc3cc2cc(c3O[C@@H]2O[C@H](CO)[C@@H](O)[C@H](O)[C@H]2O[C@H]2C[C@](C)(N)[C@H](O)[C@H](C)O2)Oc2ccc(cc2Cl)[C@H]1O [Vancomycin] | 2 Fold | No | not significantly different | IC50 ([1]; read-out: IC50 (+IPTG)): 72.5 µg/mL (≈ 50.1 µM); IC50 ([1]; read-out: IC50 (−IPTG)): 145 µg/mL (≈ 100 µM)
2 | CN(C)[C@@H]1C(O)=C(C(N)=O)C(=O)[C@@]2(O)C(O)=C3C(=O)c4c(O)cccc4[C@@](C)(O)[C@H]3C[C@@H]12 [Tetracycline] | 109 Fold | – | – | –
3 | C[C@H]1c2cccc(O)c2C(=O)C2=C(O)[C@]3(O)C(=O)C(C(N)=O)=C(O)[C@@H](N(C)C)[C@@H]3[C@@H](O)[C@@H]21 [Doxycycline] | 15 Fold | – | – | –
4 | Gentamicin | 141 Fold | Yes | – | IC50 (+IPTG) ([1]; induced cells, 400 μM IPTG): 0.01919 µg/mL; IC50 (−IPTG) ([1]; non-induced cells, 0 μM IPTG): 2.715 µg/mL
5 | CO[C@@]1(NC(=O)Cc2cccs2)C(=O)N2C(C(=O)O)=C(COC(N)=O)CS[C@@H]21 [Cefoxitin] | 1 Fold | No | not significantly different | –
6 | [H]/N=C(/N)N[C@H]1[C@H](O)[C@@H](O)[C@H](O[C@@H]2O[C@@H](C)[C@](O)(C=O)[C@H]2O[C@@H]2O[C@@H](CO)[C@H](O)[C@@H](O)[C@@H]2NC)[C@@H](N/C(N)=N\[H])[C@@H]1O [Streptomycin] | 70 Fold | Yes | – | –
7 | CN[C@@H]1[C@H](O)[C@H](NC)[C@H]2O[C@@]3(O)C(=O)C[C@@H](C)O[C@H]3O[C@@H]2[C@H]1O [Spectinomycin] | – | Yes | – | –
8 | CC(=O)O[C@H]1C[C@@]2(C)[C@@H](C[C@@H](O)[C@H]3[C@@]4(C)CC[C@@H](O)[C@@H](C)[C@@H]4CC[C@@]32C)/C1=C(\CCC=C(C)C)C(=O)O [Fusidic acid] | 94 Fold | Yes | not significantly different | –
9 | O=C(N[C@H](CO)[C@H](O)c1ccc([N+](=O)[O-])cc1)C(Cl)Cl [Chloramphenicol] | 307 Fold | Yes | – | –
10 | NC[C@H]1O[C@H](O[C@H]2[C@H](O)[C@@H](O[C@H]3O[C@H](CO)[C@@H](O)[C@H](N)[C@H]3O)[C@H](N)C[C@@H]2N)[C@H](N)C[C@@H]1O [Tobramycin] | 51 Fold | Yes | not significantly different | –
11 | CC1COc2c(N3CCN(C)CC3)c(F)cc3c(=O)c(C(=O)O)cn1c23 (stereo not drawn) [Ofloxacin] | 1 Fold | – | – | –
12 | COc1cc(Cc2cnc(N)nc2N)cc(OC)c1OC [Trimethoprim] | – | – | not significantly different | –
13 | CO/N=C(\C(=O)N[C@@H]1C(=O)N2C(C(=O)O)=C(COC(C)=O)CS[C@H]12)c1csc(N)n1 [Cefotaxime] | 1 Fold | No | not significantly different | –
14 | CN(C)c1ccc(O)c2c1C[C@H]1C[C@H]3[C@H](N(C)C)C(O)=C(C(N)=O)C(=O)[C@@]3(O)C(O)=C1C2=O [Minocycline] | 172 Fold | – | – | –
15 | CCC[C@@H]1C[C@@H](C(=O)N[C@@H]([C@H]2O[C@H](SC)[C@H](O)[C@@H](O)[C@H]2O)[C@@H](C)O)N(C)C1 [Lincomycin] | 145 Fold | Yes | not significantly different | –
16 | CC[C@H](C)[C@H](N)C1=N[C@H](C(=O)N[C@@H](CC(C)C)C(=O)N[C@H](CCC(=O)O)C(=O)N[C@H](C(=O)N[C@H]2CCCCNC(=O)[C@H](CC(N)=O)NC(=O)[C@@H](CC(=O)O)NC(=O)[C@H](Cc3cnc[nH]3)NC(=O)[C@@H](Cc3ccccc3)NC(=O)[C@H]([C@@H](C)CC)NC(=O)[C@@H](CCCN)NC2=O)[C@@H](C)CC)CS1 [Bacitracin] ({Ileψ(thiazoline)Cys}-L[dE]IK[dOrn]I[dF]H[dD]N; lactam 4-C) | 1 Fold | No | – | –
